Assay results reported in ChEMBL document CHEMBL5726133, “Dihydropyrrolopyridine inhibitors of ROR-gamma” (2017).

These molecules were tested against T1, Nuclear receptor ROR-gamma (Homo sapiens, UniProt P51449) (assay: Binding Assay: Compounds of the present invention were tested for ability to bind to RORγ in a cell-free competition assay with commercially available radio-ligand (RL), 25-hydroxy [26,27-3H]-cholesterol (PerkinElmer, Cat. #NET674250UC), for a ligand binding site on a recombinant RORγ Ligand Binding Domain (LBD) protein expressed as a 6×His-Glutathione-S-Transferase (GST) fusion. […] The plate was shaken at 700 rpm for 20 min and incubated for 10 min at rt, after which 40 μL of poly-Lys YSi SPA beads (PerkinElmer, Cat. #RPNQ0010) were added to achieve 50 μg of the beads per well. The plate was incubated on an orbital shaker for 20 min and then for 10 min without agitation at rt. SPA signal for tritium beta radiation was registered on PerkinElmer Microbeta plate reader.).
T1 sequence (P51449 whole entry): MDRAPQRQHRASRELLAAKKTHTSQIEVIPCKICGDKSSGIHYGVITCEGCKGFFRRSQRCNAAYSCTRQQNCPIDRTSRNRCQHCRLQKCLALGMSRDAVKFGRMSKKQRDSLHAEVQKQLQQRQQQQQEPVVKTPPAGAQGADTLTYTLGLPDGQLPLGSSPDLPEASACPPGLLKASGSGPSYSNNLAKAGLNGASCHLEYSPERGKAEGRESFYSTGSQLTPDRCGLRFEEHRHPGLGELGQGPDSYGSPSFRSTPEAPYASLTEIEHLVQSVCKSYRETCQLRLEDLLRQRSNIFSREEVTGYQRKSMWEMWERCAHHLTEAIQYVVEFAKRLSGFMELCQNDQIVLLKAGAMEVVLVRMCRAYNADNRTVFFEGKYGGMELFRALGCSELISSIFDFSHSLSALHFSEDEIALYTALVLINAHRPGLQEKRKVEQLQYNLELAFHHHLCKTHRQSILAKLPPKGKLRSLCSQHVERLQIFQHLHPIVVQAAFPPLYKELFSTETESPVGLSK

| Ki [nM] | SMILES |
| --- | --- |
| < 100 | CCS(=O)(=O)c1ccc(CC(=O)Nc2cnc3c(c2)CN(Cc2ccc(Cl)cc2)[C@H]3C(C)C)cc1 |
| < 100 | CCS(=O)(=O)c1ccc(CNC(=O)c2cnc3c(c2)C(=O)N(Cc2ccc(Cl)cc2)[C@H]3C(C)C)cc1 |
| < 100 | CCS(=O)(=O)c1ccc(C2(NC(=O)c3cnc4c(c3)CN(Cc3ccc(C(F)(F)F)cc3)[C@H]4C(C)C)CC2)nc1 |
